Data on 21 compounds can be found in patent US20250145625A1, “PYRAZOLOPYRIMIDINE DERIVATIVE AND ANTICANCER PHARMACEUTICAL COMPOSITION CONTAINING SAME AS ACTIVE INGREDIENT” (KOREA RESEARCH INSTITUTE OF CHEMICAL TECHNOLOGY, priority 2021, published 2025).

The target in experiment [1] is recombinant human TTK protein (Homo sapiens (Human), UniProt P33981). The experiment in a line: Evaluation of TTK activity inhibitory ability (scintillation counting).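 Further: reaction stopped with 0.5% phosphoric acid, spotted on P30 filter, TTK activity counted by scintillation, uninhibited no-compound wells taken as 100% control.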 The conditions noted are these: TTK inhibitory activity; read-out: IC50. It counts as biochemical.
Experimental: To determine the ability of a compound represented by Chemical Formula 1 according to the present invention to inhibit TTK activity, the following experiment was conducted.
After that, the reaction was terminated by adding phosphoric acid to a concentration of 0.5%, and 10 of the reaction solution was dropped onto a P30 filter. […] The activity of TTK was measured through scintillation counting. The activity value from the group with no compound was set as 100% of control, and the degree of TTK inhibition by the compound was calculated.
The subject of experiment [2] is MDA-MB-231 triple negative breast cancer cell line. The experiment in a line: Cytotoxicity in TTK-expressed MDA-MB-231 cells. The format is cell-based. The conditions noted are these: Homo sapiens, MDA-MB-231, 120 h, 5 days. How it is done: To determine the cytotoxicity of a compound represented by Chemical Formula 1 according to the present invention to MDA-MB-231 cells, the following test was conducted.
MDA-MB-231 triple negative breast cancer cell line purchased from ATCC was inoculated into each well of a 96-well plate at a volume of 90 μL containing 2,000 cells. Thereafter, an example compound of the present invention was added to respective wells at concentrations of 10 μM, 3 μM, 1 μM, 0.3 μM, 0.1 μM, and 0 μM, and the cells were cultured in a cell incubator at 37° C. for 5 days. Five days later, 10 μL of Cyto X solution (manufacturer: LPS Solution) was added to each of the wells, and the absorbance was measured at 450 nm using an Epoch microplate spectrophotometer (manufacturer: BioTek Instruments Inc.) according to the product's user guide. For cytotoxicity, the IC50 value for cytotoxicity of each compound was calculated by quantifying the number of cells using the measured value.

The subject of experiment [3] is HCT116 colon cancer cell line. Briefly: Cytotoxicity in TTK-expressed HCT116 cells. The format is cell-based. The conditions noted are these: Homo sapiens, HCT-116, 120 h, 5 days. How it is done:
To determine the cytotoxicity of a compound represented by Chemical Formula 1 according to the present invention to HCT116 cells, the following test was conducted.
HCT116 colon cancer cell line purchased from ATCC was inoculated into each well of a 96-well plate at a volume of 90 μL containing 2,000 cells. Thereafter, an example compound of the present invention was added to respective wells at concentrations of […], 3 μM, 1 μM, 0.3 μM, 0.1 μM, and 0 μM, and the cells were cultured in a cell incubator at 37° C. for 5 days. After 5 days, the number of cells was measured by CCK8 test method, and the cytotoxicity was determined by calculating the IC50 value for cytotoxicity of each compound.

Sequence of recombinant human TTK protein (P33981 whole entry): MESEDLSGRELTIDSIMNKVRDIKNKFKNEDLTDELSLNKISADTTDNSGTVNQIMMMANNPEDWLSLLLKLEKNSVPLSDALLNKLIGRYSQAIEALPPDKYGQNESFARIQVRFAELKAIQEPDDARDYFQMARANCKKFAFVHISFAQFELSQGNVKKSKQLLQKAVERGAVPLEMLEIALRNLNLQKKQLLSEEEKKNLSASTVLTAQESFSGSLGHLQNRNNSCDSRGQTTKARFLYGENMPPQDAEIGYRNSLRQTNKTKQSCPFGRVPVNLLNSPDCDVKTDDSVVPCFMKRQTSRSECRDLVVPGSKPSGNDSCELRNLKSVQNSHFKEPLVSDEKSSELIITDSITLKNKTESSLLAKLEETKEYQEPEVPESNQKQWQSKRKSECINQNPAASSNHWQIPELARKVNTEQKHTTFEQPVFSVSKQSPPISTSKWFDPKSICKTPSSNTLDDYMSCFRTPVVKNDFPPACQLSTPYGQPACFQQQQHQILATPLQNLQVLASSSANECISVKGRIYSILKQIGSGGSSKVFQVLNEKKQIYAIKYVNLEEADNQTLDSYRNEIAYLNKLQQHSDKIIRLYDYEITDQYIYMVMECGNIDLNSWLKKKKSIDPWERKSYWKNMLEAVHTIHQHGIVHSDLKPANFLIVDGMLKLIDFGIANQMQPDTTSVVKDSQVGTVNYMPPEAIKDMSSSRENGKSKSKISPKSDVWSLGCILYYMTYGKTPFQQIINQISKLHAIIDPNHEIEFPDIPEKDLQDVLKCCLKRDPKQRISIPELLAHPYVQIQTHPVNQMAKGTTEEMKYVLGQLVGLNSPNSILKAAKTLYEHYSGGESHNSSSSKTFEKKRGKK

`COc1cc(N2CCOCC2)ccc1Nc1nc(NC2CCCCC2)c2c(-c3n[nH]c(=O)o3)n[nH]c2n1` [Compound 14-3, 5-(4-(cyclohexylamino)-6-((2-methoxy-4-morpholinophenyl)amino)-1H-pyrazolo[3,4-d]pyrimidin-3-yl)-1,3,4-oxadiazol-2(3H)-one]: the half-maximal inhibitory concentration (IC50) in experiment [1] is 30 to 100 nM; in experiment [2] it was 150 to 500 nM; in experiment [3], under 150 nM.
For `COc1cc(C(=O)N2CCOCC2)ccc1Nc1nc(NC2CCCCC2)c2c(-c3cnn(C)c3)n[nH]c2n1` [Compound 11-4, (4-((4-(cyclohexylamino)-3-(1-methyl-1H-pyrazol-4-yl)-1H-pyrazolo[3,4-d]pyrimidin-6-yl)amino)-3-methoxyphenyl)(morpholino)methanone], in that order: under 30 nM, 150 to 500 nM and 150 to 500 nM.
For `COc1cc(N2CCOCC2)ccc1Nc1nc(Nc2ccccc2)c2c(-c3cnn(C)c3)n[nH]c2n1` [Compound 26-2, N^6-(2-methoxy-4-morpholinophenyl)-3-(1-methyl-1H-pyrazol-4-yl)-N^4-phenyl-1H-pyrazolo[3,4-d]pyrimidine-4,6-diamine], in that order: under 30 nM, over 1000 nM and over 1000 nM.
The corresponding values for `CNC(=O)c1ccc(Nc2nc(NC3CCOCC3)c3c(-c4cnco4)n[nH]c3n2)c(OC)c1` [Compound 33-2, 3-methoxy-N-methyl-4-((3-(oxazol-5-yl)-4-((tetrahydro-2H-pyran-4-yl)amino)-1H-pyrazolo[3,4-d]pyrimidin-6-yl)amino)benzamide] are under 30 nM, 150 to 500 nM and 500 to 1000 nM.
`COc1cc(N2CCOCC2)ccc1Nc1nc(NC2CCCCC2)c2c(-c3cnoc3)n[nH]c2n1` [Compound 8-20, N^4-cyclohexyl-3-(isoxazol-4-yl)-N^6-(2-methoxy-4-morpholinophenyl)-1H-pyrazolo[3,4-d]pyrimidine-4,6-diamine]: the concentration for half-maximal inhibition (IC50) in experiment [1] is under 30 nM; in experiment [2] it was under 150 nM; in experiment [3], under 150 nM.
`COc1cc(N2CCOCC2)ccc1Nc1nc(NC2CCCCC2)c2c(-c3cn(C)cn3)n[nH]c2n1` [Compound 8-19, N^4-cyclohexyl-N^6-(2-methoxy-4-morpholinophenyl)-3-(1-methyl-1H-imidazol-4-yl)-1H-pyrazolo[3,4-d]pyrimidine-4,6-diamine]: the values for the IC50 in experiment [1], in experiment [2] and in experiment [3] were 30 to 100 nM, 150 to 500 nM and 500 to 1000 nM, respectively.
Consider `COc1cc(N2CCOCC2)ccc1Nc1nc(NC2CCCCC2)c2c(-c3cccc(C(N)=O)c3)n[nH]c2n1` [Compound 8-2, 3-(4-(Cyclohexylamino)-6-((2-methoxy-4-morpholinophenyl)amino)-1H-pyrazolo[3,4-d]pyrimidin-3-yl)benzamide], for which the concentration for half-maximal inhibition (IC50) in experiment [2] and in experiment [3] was over 1000 nM each time.
With `COc1cc(N2CCOCC2)ccc1Nc1nc(NC2CCCCC2)c2c(-c3cnn(C)c3)n[nH]c2n1` [Compound 8-7, N^4-cyclohexyl-N^6-(2-methoxy-4-morpholinophenyl)-3-(1-methyl-1H-pyrazol-4-yl)-1H-pyrazolo[3,4-d]pyrimidine-4,6-diamine], the IC50 in experiment [1] lay in the range of 100 to 300 nM; in experiment [2] it was 150 to 500 nM; in experiment [3], 500 to 1000 nM.
For the compound `COc1cc(N2CCOCC2)ccc1Nc1nc(NC2CCOCC2)c2c(-c3cnn(C(F)F)c3)n[nH]c2n1` [Compound 8-24, 3-(1-(difluoromethyl)-1H-pyrazol-4-yl)-N^6-(2-methoxy-4-morpholinophenyl)-N^4-(tetrahydro-2H-pyran-4-yl)-1H-pyrazolo[3,4-d]pyrimidine-4,6-diamine], the values for the half-maximal inhibitory concentration (IC50) in experiment [1], in experiment [2] and in experiment [3] were under 30 nM, 150 to 500 nM and 150 to 500 nM, respectively.
With `CNC(=O)c1cccc(-c2n[nH]c3nc(Nc4ccc(N5CCOCC5)cc4OC)nc(NC4CCCCC4)c23)c1` [Compound 8-5, 3-(4-(cyclohexylamino)-6-((2-methoxy-4-morpholinophenyl)amino)-1H-pyrazolo[3,4-d]pyrimidin-3-yl)-N-methylbenzamide], the IC50 in experiment [2] and in experiment [3] was over 1000 nM in each case.
In the case of `COc1cc(N2CCOCC2)ccc1Nc1nc(NC2CCCCC2)c2c(-c3cnc[nH]3)n[nH]c2n1` [Compound 18-2, N^4-cyclohexyl-3-(1H-imidazol-5-yl)-N^6-(2-methoxy-4-morpholinophenyl)-1H-pyrazolo[3,4-d]pyrimidine-4,6-diamine], the concentration for half-maximal inhibition (IC50) in experiment [1] lay in the range of 30 to 100 nM; in experiment [2], 500 to 1000 nM; in experiment [3], 500 to 1000 nM.
As for `CC(C)Oc1cc(N2CCOCC2)ccc1Nc1nc(NC2CCCCC2)c2c(-c3cnn(C)c3)n[nH]c2n1` [Compound 26-1, N^4-cyclohexyl-N^6-(2-isopropoxy-4-morpholinophenyl)-3-(1-methyl-1H-pyrazol-4-yl)-1H-pyrazolo[3,4-d]pyrimidine-4,6-diamine], the values for the concentration for half-maximal inhibition (IC50) in experiment [1], in experiment [2] and in experiment [3] were 30 to 100 nM, 150 to 500 nM and 500 to 1000 nM, respectively.
On to `COc1cc(N2CCOCC2)ccc1Nc1nc(NC2CCCCC2)c2c(-c3cnn(C(F)F)c3)n[nH]c2n1` [Compound 8-12, N^4-cyclohexyl-3-(1-(difluoromethyl)-1H-pyrazol-4-yl)-N^6-(2-methoxy-4-morpholinophenyl)-1H-pyrazolo[3,4-d]pyrimidine-4,6-diamine], for which the 50% inhibitory concentration (IC50) in experiment [1] fell in the range of 30 to 100 nM; in experiment [2], 150 to 500 nM; in experiment [3], 150 to 500 nM.
Regarding `COc1cc(N2CCOCC2)ccc1Nc1nc(NC2CCCCC2)c2c(-c3cncs3)n[nH]c2n1` [Compound 8-15, N^4-cyclohexyl-N^6-(2-methoxy-4-morpholinophenyl)-3-(thiazol-5-yl)-1H-pyrazolo[3,4-d]pyrimidine-4,6-diamine], the IC50 in experiment [1] was under 30 nM; in experiment [2], 150 to 500 nM; in experiment [3], 150 to 500 nM.
As for `COc1cc(N2CCOCC2)ccc1Nc1nc(NC2CCOCC2)c2c(-c3ccncc3)n[nH]c2n1` [Compound 8-28, N^6-(2-methoxy-4-morpholinophenyl)-3-(pyridin-4-yl)-N^4-(tetrahydro-2H-pyran-4-yl)-1H-pyrazolo[3,4-d]pyrimidine-4,6-diamine], the IC50 in experiment [1] was under 30 nM; in experiment [2] it was 150 to 500 nM; in experiment [3], 150 to 500 nM.
On to `COc1cc(N2CCOCC2)ccc1Nc1nc(NC2CCCCC2)c2c(-c3ccc4[nH]ncc4c3)n[nH]c2n1` [Compound 8-17, N^4-cyclohexyl-3-(1H-indazol-5-yl)-N^6-(2-methoxy-4-morpholinophenyl)-1H-pyrazolo[3,4-d]pyrimidine-4,6-diamine], for which the half-inhibitory concentration (IC50) in experiment [2] and in experiment [3] was 500 to 1000 nM in each case.
In the case of `COc1cc(C(=O)N2CCN(C)CC2)ccc1Nc1nc(NC2CCCCC2)c2c(-c3cnn(C)c3)n[nH]c2n1` [Compound 11-5, (4-((4-(cyclohexylamino)-3-(1-methyl-1H-pyrazol-4-yl)-1H-pyrazolo[3,4-d]pyrimidin-6-yl)amino)-3-methoxyphenyl)(4-methylpiperazin-1-yl)methanone], the IC50 was in the range of 30 to 100 nM in experiment [1], 500 to 1000 nM in experiment [2] and 150 to 500 nM in experiment [3].
The corresponding values for `COc1cc(N2CCOCC2)ccc1Nc1nc(NCC2CCCO2)c2c(-c3cnn(C)c3)n[nH]c2n1` (stereo not shown) [Compound 8-34, N^6-(2-methoxy-4-morpholinophenyl)-3-(1-methyl-1H-pyrazol-4-yl)-N^4-((tetrahydrofuran-2-yl)methyl)-1H-pyrazolo[3,4-d]pyrimidine-4,6-diamine] are under 30 nM, over 1000 nM and over 1000 nM.
`COc1cc(N2CCOCC2)ccc1Nc1nc(NC2CCCCC2)c2c(-c3cn(C)nn3)n[nH]c2n1` [Compound 21-2, N^4-cyclohexyl-N^6-(2-methoxy-4-morpholinophenyl)-3-(1-methyl-1H-1,2,3-triazol-4-yl)-1H-pyrazolo[3,4-d]pyrimidine-4,6-diamine]: the concentration for half-maximal inhibition (IC50) in experiment [1] was under 30 nM; in experiment [2], under 150 nM; in experiment [3] it was under 150 nM.
For the compound `Cn1cc(-c2n[nH]c3nc(NC4CCC(N5CCOCC5)CC4)nc(NC4CCCCC4)c23)cn1` (stereo not shown) [Compound 8-30, N^4-cyclohexyl-3-(1-methyl-1H-pyrazol-4-yl)-N^6-(4-morpholinocyclohexyl)-1H-pyrazolo[3,4-d]pyrimidine-4,6-diamine], the results for the IC50 in experiment [1] and in experiment [2] were 100 to 300 nM and over 1000 nM, respectively.
As to `COc1cc(N2CCOCC2)ccc1Nc1nc(NC2CCCCC2)c2c(-c3cccc(NC(=O)C4CC4)c3)n[nH]c2n1` [Compound 8-4, N-(3-(4-(cyclohexylamino)-6-((2-methoxy-4-morpholinophenyl)amino)-1H-pyrazolo[3,4-d]pyrimidin-3-yl)phenyl)cyclopropanecarboxamide], the concentration for half-maximal inhibition (IC50) is 500 to 1000 nM in experiment [2] and over 1000 nM in experiment [3].
